In patent publication USRE34387E, “Method for restoring depleted purine nucleotide pools” (priority 1988, dated 1993):

How the values were obtained:
cardiovascular system = conditions: cited from earlier work; for hemodynamic effects on the cardiovascular system: purine precursors previously used to restore ATP
[1] = target: T1, adenylosuccinate lyase (cardiac muscle) (Mus musculus, UniProt P54822); conditions: bifunctional enzyme; cited from earlier work
T1 construct: the hearts and gastrocnemius muscles were excised, weighed, and homogenized to a slurry; from tissue; host or cells: mouse heart (C57BL/6J), dialyzed 10,000×g supernatant
T1 sequence (P54822 2-484 limits assumed): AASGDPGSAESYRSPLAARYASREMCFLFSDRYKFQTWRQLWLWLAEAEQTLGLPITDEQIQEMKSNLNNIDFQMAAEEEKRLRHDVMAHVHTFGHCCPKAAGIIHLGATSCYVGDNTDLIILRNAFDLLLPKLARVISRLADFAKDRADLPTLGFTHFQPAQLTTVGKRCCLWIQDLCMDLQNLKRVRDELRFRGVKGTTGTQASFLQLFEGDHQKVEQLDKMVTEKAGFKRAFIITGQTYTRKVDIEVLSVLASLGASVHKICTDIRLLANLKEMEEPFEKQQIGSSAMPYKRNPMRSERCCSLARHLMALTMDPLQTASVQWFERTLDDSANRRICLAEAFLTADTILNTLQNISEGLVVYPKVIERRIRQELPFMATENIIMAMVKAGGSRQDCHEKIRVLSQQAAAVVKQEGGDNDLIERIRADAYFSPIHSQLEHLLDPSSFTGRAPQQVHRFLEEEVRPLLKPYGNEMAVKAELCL

[2] = target: T2, adenylosuccinate lyase (skeletal muscle) (Mus musculus, UniProt P54822); test: Adenylosuccinate lyase assay, skeletal muscle enzyme; assay type: biochemical, C57BL/6J mice; conditions: pH 7.4, 25° C., 4 enzyme preparations, read-out: apparent Km of adenylosuccinate lyase for adenylosuccinate
T2 construct: the hearts and gastrocnemius muscles were excised, weighed, and homogenized to a slurry; from tissue; host or cells: mouse gastrocnemius muscle (C57BL/6J), dialyzed 10,000×g supernatant
T2 sequence (P54822 2-484 limits assumed): T1 sequence (P54822 2-484 limits assumed)
Method: (§1) Preparation and Assay of Adenylosuccinate Lyase--Six-week-old C57BL/6J mice were killed, and the hearts and gastrocnemius muscles were excised, weighed, and homogenized to a slurry in 4 volumes of 50 mM Tris-HCl, pH 7.4 at 25° C. containing 1 mM EDTA and 1 mM β-mercaptoethanol in a TenBroeck glass homogenizer. The homogenate was centrifuged at 10,000×g for 15 min and the supernatant was dialyzed against 1,000 volumes of the extraction buffer for 2 h at 4° C. The lyase activity was partially stabilized by the addition of EDTA and β-mercaptoethanol, but some activity was lost even on storage at -70° C.
(§2) The assays were carried out at pH 7.4 were reaction mixtures that contained 50 mM Tris-HCl buffer, 1 mM EDTA, 1mM β-mercaptoethanol, 20 μM adenylosuccinate, and the enzyme extract (protein concentration, 0.13-0.20 mg/ml). The decrease in absorbance at 280 nm was measured using a Gilford recording spectrophotometer. All assays were done at 25° C. and were linear with respect to time of incubation and with the amount of protein in extract added to the assay.
(§3) These are average values for experiments with 4 separate enzyme preparations. The experimental points in the double reciprocal plots were fitted to the best line by the method of least squares with all points being weighted equally.

[3] = target: T1, adenylosuccinate lyase (cardiac muscle); test: Adenylosuccinate lyase assay, cardiac muscle enzyme; assay type: biochemical, C57BL/6J mice; conditions: pH 7.4, 25° C., 4 enzyme preparations, read-out: apparent Km of adenylosuccinate lyase for adenylosuccinate
Method: as §1, §2, §3

OC[C@H]1O[C@@H](n2cnc3c(O)ncnc32)[C@H](O)[C@@H]1O [inosine]
hemodynamic effects on the cardiovascular system (cardiovascular system): deleterious hemodynamic effects

O=c1[nH]cnc2nc[nH]c12 [hypoxanthine]
hemodynamic effects on the cardiovascular system (cardiovascular system): deleterious hemodynamic effects

Nc1ncnc2c1ncn2[C@@H]1O[C@H](CO)[C@@H](O)[C@H]1O [adenosine]
hemodynamic status of the animal (cardiovascular system; adenosine administration): profound changes | hemodynamic effects on the cardiovascular system (cardiovascular system): deleterious hemodynamic effects

NC(=O)c1ncn([C@@H]2O[C@H](COP(=O)(O)O)[C@@H](O)[C@H]2O)c1N [AICAR, 5-Amino-4-imidazolecarboxamide Ribotide]
effect on both lyase activities of adenylosuccinate lyase [1]: inhibited by AICAR

O=C(O)C[C@H](Nc1ncnc2c1ncn2[C@@H]1O[C@H](COP(=O)(O)O)[C@@H](O)[C@H]1O)C(=O)O [adenylosuccinate]
Km [2]: 4.5 ± 1.5 µM | Km [3]: 2.2 ± 0.3 µM
